According to ChEMBL document CHEMBL5338742, “Neurotherapeutic Potential of Water-Soluble pH-Responsive Prodrugs of EIDD-036 in Traumatic Brain Injury” (J Med Chem, 2023):

Key:
[1] = Stability of the compound in PBS buffer at pH 7.2 assessed as half life at 25 degreeC by HPLC analysis; type: physicochemical
[2] = Aqueous solubility of compound; type: physicochemical; settings: buffer
[3] = Stability in human plasma assessed as half life at 37 degreeC by LC-MS/MS analysis; type: ADME, cell-free
[4] = Stability of the compound in PBS buffer at pH 7.2 assessed as half life in the presence of MeCN by HPLC analysis; type: physicochemical
[5] = Stability of the compound in PBS buffer at pH 7.2 assessed as half life at 37 degreeC by LC-MS/MS analysis; type: physicochemical
[6] = AUC (0-last) in Sprague-Dawley rat at 2 mg/kg,iv measured for 0.08 to 10 hrs by LC-MS/MS analysis; type: ADME, organism-based; set-up: dose 2 mg/kg, time 0.08-10 hrs, route iv; settings: in vivo
[7] = Cmax in Sprague-Dawley rat at 2 mg/kg,iv measured for 0.08 to 10 hrs by LC-MS/MS analysis; type: ADME, organism-based; set-up: dose 2 mg/kg, time 0.08-10 hrs, route iv; settings: in vivo
[8] = Solubility of compound in normal saline; type: physicochemical
[9] = Stability of the compound in 1 M NaCl; type: physicochemical
[10] = Stability of the compound in 0.15 M NaCl; type: physicochemical
[11] = Cmax in Sprague-Dawley rat assessed as cmax of parent compound at 2 mg/kg,iv measured for 0.08 to 10 hrs by LC-MS/MS analysis; type: ADME, organism-based; set-up: dose 2 mg/kg, time 0.08-10 hrs, route iv; settings: in vivo
[12] = Stability of the compound at pH 5; type: physicochemical; settings: buffer
[13] = Cmax in Sprague-Dawley rat at 10 mg/kg,im measured for 0.25 to 10 hrs by LC-MS/MS analysis; type: ADME, organism-based; set-up: time lower 0.25 hrs, dose 10 mg/kg, time upper 10 hrs, route im; settings: in vivo
[14] = AUC (0-last) in Sprague-Dawley rat assessed as AUC (0-last) of parent compound at 10 mg/kg,IM measured for 0.25 to 10 hrs by LC-MS/MS analysis; type: ADME, organism-based; set-up: time 0.25-10 hrs, dose 10 mg/kg, route im; settings: in vivo
[15] = Stability of the compound at pH 3; type: physicochemical; settings: buffer
[16] = Stability of the compound in PBS buffer at 4 degreeC; type: physicochemical
[17] = Stability of the compound in PBS buffer at 37 degreeC; type: physicochemical
[18] = AUC (0-last) in Sprague-Dawley rat assessed as AUC (0-last) of parent compound at 2 mg/kg,iv measured for 0.08 to 10 hrs by LC-MS/MS analysis; type: ADME, organism-based; set-up: dose 2 mg/kg, time upper 10 hrs, time lower 0.08 hrs, route iv; settings: in vivo
[19] = Cmax in Sprague-Dawley rat assessed as cmax of parent compound at 10 mg/kg,IM measured for 0.25 to 10 hrs by LC-MS/MS analysis; type: ADME, organism-based; set-up: time upper 10 hrs, time lower 0.25 hrs, dose 10 mg/kg, route im; settings: in vivo
Rattus norvegicus = assay: Neuroprotective activity against Sprague-Dawley rat model of traumatic brain injury assessed as reduction in cerebral edema at 10 mg/kg, IM administered for 1 to 6 hrs measured after 24 hrs relative to control; type: functional; set-up: scale not given: the % may be the effect or the level left; settings: time 25-30 hrs
[20] = AUC (0-last) in Sprague-Dawley rat at 10 mg/kg, IM measured for 0.25 to 10 hrs by LC-MS/MS analysis; type: ADME, organism-based; set-up: time upper 10 hrs, dose 10 mg/kg, time lower 0.25 hrs, route im; settings: in vivo
[21] = Stability of the compound in 0.1 M HCl; type: physicochemical
[22] = Cytotoxicity against human HepG2 cells by Maestro Z Impedance Assay; type: toxicity, cell-based
HepG2 = assay: Cytotoxicity against human HepG2 cells assessed as maximum cytolysis at 100 uM by Maestro Z Impedance Assay relative to control; type: toxicity, cell-based; settings: hepg2, 100 µM

**Q.** With `C/C(=N\OC(=O)[C@@H](N)C(C)C)[C@H]1CC[C@H]2[C@@H]3CCC4=CC(=O)CC[C@]4(C)[C@H]3CC[C@]12C.Cl` as the molecule, how does the half-life [1] read?
**A.** 11 h

**Q.** And the solubility [2]?
**A.** 146 µM

**Q.** Which results are given for `C/C(=N\OC(=O)NC[C@@H]1CCCN1)[C@H]1CC[C@H]2[C@@H]3CCC4=CC(=O)CC[C@]4(C)[C@H]3CC[C@]12C.Cl`?
**A.** half-life [1]: > 240 h; half-life [3]: > 4 h

**Q.** For `C/C(=N\OC(=O)N(C)CCNCCOC(F)(F)F)[C@H]1CC[C@H]2[C@@H]3CCC4=CC(=O)CC[C@]4(C)[C@H]3CC[C@]12C.Cl`, which solubility [2] is on record?
**A.** < 1 mg/mL

**Q.** What about the half-life [4] of the same molecule?
**A.** 28.5 h

**Q.** And the half-life [3]?
**A.** 1.7 h

**Q.** What does the source list for `C/C(=N\OC(=O)N(C)CCNCCF)[C@H]1CC[C@H]2[C@@H]3CCC4=CC(=O)CC[C@]4(C)[C@H]3CC[C@]12C.Cl`?
**A.** half-life [1]: 36.1 h; half-life [3]: 2.2 h

**Q.** Which half-life [1] does the source give for `C/C(=N\OC(=O)OC[C@@H]1CCCN1)[C@H]1CC[C@H]2[C@@H]3CCC4=CC(=O)CC[C@]4(C)[C@H]3CC[C@]12C.Cl` here?
**A.** 0.09 h

**Q.** With `C/C(=N\OC(=O)OCCN(C)C)[C@H]1CC[C@H]2[C@@H]3CCC4=CC(=O)CC[C@]4(C)[C@H]3CC[C@]12C.Cl` as the molecule, how does the half-life [1] read?
**A.** 3.5 h

**Q.** What about the half-life [3] of the same molecule?
**A.** 7.2 h

**Q.** Which results are given for `C/C(=N\OC(=O)N(C)C[C@@H]1CCCN1C)[C@H]1CC[C@H]2[C@@H]3CCC4=CC(=O)CC[C@]4(C)[C@H]3CC[C@]12C.Cl`?
**A.** half-life [5]: > 2 h; half-life [3]: 0.9 h

**Q.** For `CNCC(C)(C)CN(C)C(=O)O/N=C(\C)[C@H]1CC[C@H]2[C@@H]3CCC4=CC(=O)CC[C@]4(C)[C@H]3CC[C@]12C.Cl`, which half-life [1] is on record?
**A.** > 240 h

**Q.** And the half-life [3]?
**A.** > 4 h

**Q.** Which half-life [1] does the source give for `CNCCN(C)C(=O)O/N=C(\C)[C@H]1CC[C@H]2[C@@H]3CCC4=CC(=O)CC[C@]4(C)[C@H]3CC[C@]12C.Cl` here?
**A.** 46.9 h

**Q.** What about the half-life [3] of the same molecule?
**A.** 2.7 h

**Q.** Which half-life [1] does the source give for `C/C(=N\OC(=O)N(C)CCNCCO)[C@H]1CC[C@H]2[C@@H]3CCC4=CC(=O)CC[C@]4(C)[C@H]3CC[C@]12C.Cl` here?
**A.** 30.4 h

**Q.** And the half-life [3]?
**A.** 2.8 h

**Q.** Which half-life [1] does the source give for `CC(=O)[C@H]1CC[C@H]2[C@@H]3CCC4=C/C(=N/OC(=O)[C@@H](N)C(C)C)CC[C@]4(C)[C@H]3CC[C@]12C.Cl` here?
**A.** 10 h

**Q.** What about the solubility [2] of the same molecule?
**A.** 172 µM

**Q.** For `C/C(=N\OC(=O)OCCN)[C@H]1CC[C@H]2[C@@H]3CCC4=CC(=O)CC[C@]4(C)[C@H]3CC[C@]12C.Cl`, which half-life [1] is on record?
**A.** 0.11 h

**Q.** Which results are given for `C/C(=N\OC(=O)N1CCC[C@H]1CN)[C@H]1CC[C@H]2[C@@H]3CCC4=CC(=O)CC[C@]4(C)[C@H]3CC[C@]12C.Cl`?
**A.** half-life [1]: > 240 h; half-life [3]: > 4 h

**Q.** With `C/C(=N\OC(=O)NC[C@@H]1CCCCN1)[C@H]1CC[C@H]2[C@@H]3CCC4=CC(=O)CC[C@]4(C)[C@H]3CC[C@]12C.Cl` as the molecule, how does the half-life [1] read?
**A.** > 240 h

**Q.** Which half-life [1] does the source give for `C/C(=N\OC(=O)N(C)C[C@@H]1CCCN1)[C@H]1CC[C@H]2[C@@H]3CCC4=CC(=O)CC[C@]4(C)[C@H]3CC[C@]12C.Cl` here?
**A.** 1.9 h

**Q.** And the AUC(0-t) [6]?
**A.** 62.9 ng·h/mL

**Q.** And the Cmax [7]?
**A.** 122 ng/mL

**Q.** And the solubility [8]?
**A.** > 50 mg/mL

**Q.** And the half-life [9]?
**A.** 168 h

**Q.** What about the half-life [10] of the same molecule?
**A.** > 240 h

**Q.** And the Cmax [11]?
**A.** 328 ng/mL

**Q.** What about the half-life [12] of the same molecule?
**A.** 175 h

**Q.** And the Cmax [13]?
**A.** 224 ng/mL

**Q.** And the AUClast [14]?
**A.** 1304 ng·h/mL

**Q.** What about the half-life [15] of the same molecule?
**A.** 192 h

**Q.** And the half-life [5]?
**A.** 1.9 h

**Q.** And the half-life [16]?
**A.** 74.4 h

**Q.** And the half-life [17]?
**A.** 1 h

**Q.** What about the AUClast [18] of the same molecule?
**A.** 176 ng·h/mL

**Q.** And the Cmax [19]?
**A.** 954 ng/mL

**Q.** And the Activity (Rattus norvegicus)?
**A.** 40%

**Q.** What about the AUC(0-t) [20] of the same molecule?
**A.** 288 ng·h/mL

**Q.** And the half-life [21]?
**A.** 1.3 h

**Q.** Which AUC(0-t) [6] does the source give for `C/C(=N\OCOP(=O)([O-])[O-])[C@H]1CC[C@H]2[C@@H]3CCC4=CC(=O)CC[C@]4(C)[C@H]3CC[C@]12C.[Na+].[Na+]` here?
**A.** 22 ng·h/mL

**Q.** And the solubility [2]?
**A.** > 150 mg/mL

**Q.** What about the Cmax [7] of the same molecule?
**A.** 182 ng/mL

**Q.** And the Cmax [11]?
**A.** 219 ng/mL

**Q.** And the Cmax [13]?
**A.** 1360 ng/mL

**Q.** And the AUClast [14]?
**A.** 753 ng·h/mL

**Q.** What about the AUClast [18] of the same molecule?
**A.** 48 ng·h/mL

**Q.** And the Cmax [19]?
**A.** 425 ng/mL

**Q.** And the AUC(0-t) [20]?
**A.** 724 ng·h/mL

**Q.** With `C/C(=N\OC(=O)N(C)C[C@@H]1CCCCN1)[C@H]1CC[C@H]2[C@@H]3CCC4=CC(=O)CC[C@]4(C)[C@H]3CC[C@]12C.Cl` as the molecule, how does the half-life [1] read?
**A.** > 240 h

**Q.** With `CNC[C@@H]1CCCN1C(=O)O/N=C(\C)[C@H]1CC[C@H]2[C@@H]3CCC4=CC(=O)CC[C@]4(C)[C@H]3CC[C@]12C.Cl` as the molecule, how does the half-life [1] read?
**A.** > 240 h

**Q.** And the half-life [3]?
**A.** > 4 h

**Q.** Which half-life [1] does the source give for `CNCCCN(C)C(=O)O/N=C(\C)[C@H]1CC[C@H]2[C@@H]3CCC4=CC(=O)CC[C@]4(C)[C@H]3CC[C@]12C.Cl` here?
**A.** > 240 h

**Q.** What about the half-life [3] of the same molecule?
**A.** > 4 h

**Q.** For `C/C(=N\OC(=O)NCCN)[C@H]1CC[C@H]2[C@@H]3CCC4=CC(=O)CC[C@]4(C)[C@H]3CC[C@]12C.Cl`, which half-life [1] is on record?
**A.** > 240 h

**Q.** What about the half-life [3] of the same molecule?
**A.** > 2 h

**Q.** For `CNCCN(CCO)C(=O)O/N=C(\C)[C@H]1CC[C@H]2[C@@H]3CCC4=CC(=O)CC[C@]4(C)[C@H]3CC[C@]12C.Cl`, which half-life [1] is on record?
**A.** 24.8 h

**Q.** What about the half-life [3] of the same molecule?
**A.** 1.6 h

**Q.** For `C/C(=N\OC(=O)NCCN(C)C)[C@H]1CC[C@H]2[C@@H]3CCC4=CC(=O)CC[C@]4(C)[C@H]3CC[C@]12C.Cl`, which half-life [1] is on record?
**A.** > 240 h

**Q.** And the half-life [3]?
**A.** > 3.5 h

**Q.** Which CC50 [22] does the source give for `CN1C[C@@H]2CCCN2C1=O` here?
**A.** > 100 µM

**Q.** And the Activity (HepG2)?
**A.** 30%
